What was measured:
[1] = Solubility in Normal Ringer Solution; format: physicochemical; details: saline or isotonic, kinetic from dmso stock, pH 7.4 at room temperature, 40 minutes incubation, from 10 mM DMSO stock
Description: Compounds of the invention were also tested for solubility in Normal Ringer Solution. Briefly, compound solubility was determined by dissolving a standard range of volumes of 10 mM DMSO stock of compounds in Normal Ringer Solution (pH 7.4 at room temperature). Following vortex and incubation for 40 minutes at room temperature, solutions were filtered, quenched with acetonitrile, and analyzed by Liquid Chromatography. Solubility limits were determined by comparison to a standard curve. […] Solubility is reported as “greater than” if the observed increase between the last 2 dilutions tested is greater than 2-fold.

[2] = biological target: human TRPA1 (Homo sapiens (Human), UniProt O75762); assay: Inhibition of human TRPA1 in whole cell patch configuration (10 μM AITC activation); format: cell-based; details: current activation 10 μM AITC, tested concentrations 320 pM to 3.2 μM, read-out: hTRPA1 IC50
Sequence of human TRPA1 (O75762 whole entry): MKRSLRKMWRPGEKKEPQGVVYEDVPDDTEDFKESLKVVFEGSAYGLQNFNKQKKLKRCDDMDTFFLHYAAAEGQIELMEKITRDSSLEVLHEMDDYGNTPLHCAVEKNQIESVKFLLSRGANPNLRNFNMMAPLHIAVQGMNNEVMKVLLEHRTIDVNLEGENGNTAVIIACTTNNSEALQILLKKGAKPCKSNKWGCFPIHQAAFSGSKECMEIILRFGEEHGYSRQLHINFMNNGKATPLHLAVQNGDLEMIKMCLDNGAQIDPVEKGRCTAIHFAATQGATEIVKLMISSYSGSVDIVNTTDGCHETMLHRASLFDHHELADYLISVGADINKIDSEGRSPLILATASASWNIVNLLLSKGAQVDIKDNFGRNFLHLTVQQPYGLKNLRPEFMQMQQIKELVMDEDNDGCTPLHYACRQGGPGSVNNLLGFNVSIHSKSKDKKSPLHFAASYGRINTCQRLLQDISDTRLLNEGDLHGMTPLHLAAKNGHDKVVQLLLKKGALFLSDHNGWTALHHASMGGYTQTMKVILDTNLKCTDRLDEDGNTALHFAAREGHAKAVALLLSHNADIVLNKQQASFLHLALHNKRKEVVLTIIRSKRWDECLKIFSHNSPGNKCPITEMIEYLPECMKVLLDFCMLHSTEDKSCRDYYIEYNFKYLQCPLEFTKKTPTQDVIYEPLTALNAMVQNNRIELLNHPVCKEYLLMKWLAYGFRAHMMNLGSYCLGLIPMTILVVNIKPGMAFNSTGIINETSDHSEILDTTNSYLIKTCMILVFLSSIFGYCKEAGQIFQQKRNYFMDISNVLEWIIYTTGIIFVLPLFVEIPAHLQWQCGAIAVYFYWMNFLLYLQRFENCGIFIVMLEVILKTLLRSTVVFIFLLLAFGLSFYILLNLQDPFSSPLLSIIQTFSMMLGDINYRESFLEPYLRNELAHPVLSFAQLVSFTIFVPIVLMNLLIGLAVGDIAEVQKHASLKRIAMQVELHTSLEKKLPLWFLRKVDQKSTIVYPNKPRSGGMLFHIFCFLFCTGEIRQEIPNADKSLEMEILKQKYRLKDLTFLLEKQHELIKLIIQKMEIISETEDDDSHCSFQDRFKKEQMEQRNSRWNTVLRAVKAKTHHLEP
Description: Data for TRPA1 inhibition was obtained by this method for the indicated compounds of Formula (I), (II), or (III), with the relevant data included in Table 2 below. All currents were recorded in whole-cell configuration using EPC-9 and EPC-10 amplifiers and Patchmaster software (HEKA) or similar. […] The standard pipette solution consisted of 140 mM CsAsp, 10 mM EGTA, 10 mM HEPES, […], 1.91 mM CaCl2, and up to 0.3 mM Na2GTP, with pH adjusted to 7.2 with CsOH. In addition, a solution containing 145 mM CsCl, 10 mM HEPES, 10 mM EGTA, and up to 0.3 mM Na2GTP and 1 mM MgCl2 (pH 7.2 adjusted with CsOH) can be used. The standard bath solution contained 150 mM NaCl, 10 mM HEPES, 10 mM glucose, 4.5 mM KCl, 1 mM EGTA, 3 mM MgCl2, with pH adjusted to 7.4 with NaOH. In some instances, 2 mM CaCl2 was added in place of EGTA and the concentration of MgCl2 was reduced to 1 mM.
Data were collected either by continuous recordings at −60 mV or by applying voltage ramps from a holding potential of −40 mV every 4 s. Continuous recordings were collected at 400 Hz and digitally filtered off-line at 10 Hz for presentation. Voltage ramps were applied from −100 mV or −80 mV to +100 mV or +80 mV over the course of 400 ms, and data were collected at 10 kHz and filtered at 2.9 kHz. Inward and outward currents were analyzed from the ramps at −80 and 80 mV, respectively. Liquid junction potential correction was not used.
Solutions were switched using a gravity-fed continuous focal perfusion system. To achieve rapid temperature changes, two temperature control, and perfusion systems were employed simultaneously. For temperatures greater than or equal to 22° C., a Warner Instruments bipolar temperature controller (TC-344B) and inline heater (SHM-8) were used. For temperatures below 22° C. a Warner Instruments temperature controller (CL-100) and thermal cooling module (TCM-1) were used. Temperatures were confirmed using a thermistor (Warner Instruments, TA-29), with temperatures at the recorded cell estimated to be within +/−2° C. of those reported.
The antagonist effects of compounds of Formula (I), (II), or (III) against human TRPA1 (“hTRPA1”) in a whole cell patch configuration were evaluated using the in vitro assay described above. The current activation tested was 10 μM AITC, and the tested concentrations ranged from 320 pM to 3.2 μM.

| SMILES | solubility at 40 min [1] [µM] | IC50 [2] [nM] |
| --- | --- | --- |
| C[C@@H](C(=O)Nc1cncc(-c2cnc(C(F)(F)F)nc2)n1)n1cnc2c1c(=O)n(CC(N)=O)c(=O)n2C [Compound 104] | > 31.3 | 7090 |
| C[C@@H](C(=O)Nc1cccc(-c2cnc(C(F)(F)F)nc2)n1)n1cnc2c1c(=O)n(CC(N)=O)c(=O)n2C [Compound 105] | > 31.3 | 566 |
| [2H]C([2H])([2H])n1c(=O)n(Cc2nc(C)no2)c(=O)c2c1ncn2C(C)C(=O)Nc1cccc(-c2cnc(C(F)(F)F)nc2)n1 (centres unmarked) [Compound 107] | > 31.3 |  |
| Cc1noc(Cn2c(=O)[nH]c3ncn(C(C)C(=O)Nc4cccc(-c5cnc(C(F)(F)F)nc5)n4)c3c2=O)n1 (centres unmarked) [Compound 101] | > 31.3 | 559 |
| CC(=O)NC(=O)Cn1c(=O)c2c(ncn2[C@@H](C)C(=O)Nc2cccc(-c3cnc(C(F)(F)F)nc3)n2)n(C)c1=O [Compound 103] | > 31.3 | 47.6 |

Further lines, results first:

| solubility at 40 min [1] [µM] | IC50 [2] [nM] | SMILES |
| --- | --- | --- |
| > 31.3 | > 10000 | Cc1noc(Cn2c(=O)[nH]c3ncn(C(C)C(=O)Nc4cncc(-c5cnc(C(F)(F)F)nc5)n4)c3c2=O)n1 (centres unmarked) [Compound 100] |
| > 31.3 | 172 | CC(=O)NC(=O)Cn1c(=O)c2c(ncn2[C@@H](C)C(=O)Nc2cncc(-c3cnc(C(F)(F)F)nc3)n2)n(C)c1=O [Compound 102] |
| > 31.3 |  | [2H]C([2H])([2H])n1c(=O)n(Cc2nc(C)no2)c(=O)c2c1ncn2C(C)C(=O)Nc1cncc(-c2cnc(C(F)(F)F)nc2)n1 (centres unmarked) [Compound 106] |

Source: patent US11161849B2, “Inhibiting the transient receptor potential al ion channel” (Eli Lilly and Company, priority 2018, dated 2021)
